From patent publication US10947289B2, “Glyco-modified atrial natriuretic peptide” (priority 2013, dated 2021)

These compounds were tested against T1, human GC-A (Homo sapiens, UniProt P16066) (assay: cGMP elevating activity in CHO/human GC-A cells (Test Example 1)).
T1 construct: expressed in transfected cells; host or cells: CHO cells
T1 sequence (P16066 33-1061): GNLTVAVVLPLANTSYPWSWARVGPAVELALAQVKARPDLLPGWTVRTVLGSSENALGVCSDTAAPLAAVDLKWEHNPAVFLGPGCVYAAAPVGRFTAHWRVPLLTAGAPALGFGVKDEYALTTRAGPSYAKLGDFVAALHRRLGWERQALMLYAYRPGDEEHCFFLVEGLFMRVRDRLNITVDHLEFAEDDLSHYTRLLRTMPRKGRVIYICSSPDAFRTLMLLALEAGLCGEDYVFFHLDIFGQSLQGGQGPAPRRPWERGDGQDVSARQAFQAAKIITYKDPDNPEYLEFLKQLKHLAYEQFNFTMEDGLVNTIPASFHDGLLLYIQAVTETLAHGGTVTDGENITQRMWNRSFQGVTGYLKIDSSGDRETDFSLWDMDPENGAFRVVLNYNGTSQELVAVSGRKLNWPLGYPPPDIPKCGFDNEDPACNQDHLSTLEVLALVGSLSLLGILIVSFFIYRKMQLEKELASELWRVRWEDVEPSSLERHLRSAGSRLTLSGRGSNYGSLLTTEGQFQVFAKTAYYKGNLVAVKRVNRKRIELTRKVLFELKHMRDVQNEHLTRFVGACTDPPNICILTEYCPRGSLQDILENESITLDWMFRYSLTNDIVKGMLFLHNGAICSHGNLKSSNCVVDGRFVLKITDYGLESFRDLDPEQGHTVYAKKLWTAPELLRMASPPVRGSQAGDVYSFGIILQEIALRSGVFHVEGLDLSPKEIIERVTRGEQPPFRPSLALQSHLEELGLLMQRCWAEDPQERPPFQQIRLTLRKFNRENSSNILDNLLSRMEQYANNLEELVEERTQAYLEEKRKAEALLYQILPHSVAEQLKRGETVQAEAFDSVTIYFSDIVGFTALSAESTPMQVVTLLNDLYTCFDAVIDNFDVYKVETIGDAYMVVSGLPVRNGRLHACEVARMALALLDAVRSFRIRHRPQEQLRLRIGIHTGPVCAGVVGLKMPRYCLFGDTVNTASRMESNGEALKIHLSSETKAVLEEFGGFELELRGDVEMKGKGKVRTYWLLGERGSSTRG
Assay type: cell-based
Summary of the method: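 cGMP in lysates was read by HTRF after a 15 min peptide exposure of GC-A-expressing CHO cells in a CO2 incubator, following 10 min room-temperature preincubation with 1.6 mM IBMX in KRB. T/C values were normalised between solvent wells (0) and 1 nM ANP wells (1).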

Structure (SMILES)	EC50 [nM]
CC[C@H](C)[C@@H]1NC(=O)[C@H](CCCNC(=N)N)NC(=O)[C@H](CC(=O)O)NC(=O)[C@H](CCSC)NC(=O)[C@H](CCCNC(=N)N)NC(=O)CNC(=O)CNC(=O)[C@H](Cc2ccccc2)NC(=O)[C@@H](NC(=O)[C@H](CO)NC(=O)[C@H](CO)NC(=O)[C@H](CCCNC(=N)N)NC(=O)[C@H](CCCNC(=N)N)NC(=O)[C@H](CC(C)C)NC(=O)[C@H](CO)NC(=O)CCOCCOCCOCCOCCNC(=O)CO[C@@H]2O[C@H](CO)[C@@H](O[C@@H]3O[C@H](CO)[C@@H](O[C@@H]4O[C@H](CO[C@H]5O[C@H](CO)[C@@H](O)[C@H](O)[C@@H]5O[C@@H]5O[C@H](CO)[C@@H](O[C@@H]6O[C@H](CO[C@]7(C(=O)O)C[C@H](O)[C@@H](NC(C)=O)[C@H]([C@H](O)[C@H](O)CO)O7)[C@H](O)[C@H](O)[C@H]6O)[C@H](O)[C@H]5NC(C)=O)[C@@H](O)[C@H](O[C@H]5O[C@H](CO)[C@@H](O)[C@H](O)[C@@H]5O[C@@H]5O[C@H](CO)[C@@H](O[C@@H]6O[C@H](CO[C@]7(C(=O)O)C[C@H](O)[C@@H](NC(C)=O)[C@H]([C@H](O)[C@H](O)CO)O7)[C@H](O)[C@H](O)[C@H]6O)[C@H](O)[C@H]5NC(C)=O)[C@@H]4O)[C@H](O)[C@H]3NC(C)=O)[C@H](O)[C@H]2NC(C)=O)CSSC[C@@H](C(=O)N[C@@H](CC(N)=O)C(=O)N[C@@H](CO)C(=O)N[C@@H](Cc2ccccc2)C(=O)N[C@@H](CCCNC(=N)N)C(=O)N[C@@H](Cc2ccc(O)cc2)C(=O)NCCOCCOCCOCCOCCC(=O)NCCO[C@@H]2O[C@H](CO)[C@@H](O[C@@H]3O[C@H](CO)[C@@H](O[C@@H]4O[C@H](CO[C@H]5O[C@H](CO)[C@@H](O)[C@H](O)[C@@H]5O[C@@H]5O[C@H](CO)[C@@H](O[C@@H]6O[C@H](CO[C@]7(C(=O)O)C[C@H](O)[C@@H](NC(C)=O)[C@H]([C@H](O)[C@H](O)CO)O7)[C@H](O)[C@H](O)[C@H]6O)[C@H](O)[C@H]5NC(C)=O)[C@@H](O)[C@H](O[C@H]5O[C@H](CO)[C@@H](O)[C@H](O)[C@@H]5O[C@@H]5O[C@H](CO)[C@@H](O[C@@H]6O[C@H](CO[C@]7(C(=O)O)C[C@H](O)[C@@H](NC(C)=O)[C@H]([C@H](O)[C@H](O)CO)O7)[C@H](O)[C@H](O)[C@H]6O)[C@H](O)[C@H]5NC(C)=O)[C@@H]4O)[C@H](O)[C@H]3NC(C)=O)[C@H](O)[C@H]2NC(C)=O)NC(=O)CNC(=O)[C@H](CC(C)C)NC(=O)CNC(=O)[C@H](CO)NC(=O)[C@H](CCC(N)=O)NC(=O)[C@H](C)NC(=O)CNC1=O [Compound 2-24, SG-PEG(3)-hANP(1-28)-PEG(3)-SG]	0.54
CC[C@H](C)[C@@H]1NC(=O)[C@H](CCCNC(=N)N)NC(=O)[C@H](CC(=O)O)NC(=O)[C@H](CCSC)NC(=O)[C@H](CCCNC(=N)N)NC(=O)CNC(=O)CNC(=O)[C@H](Cc2ccccc2)NC(=O)[C@@H](NC(=O)[C@H](CO)NC(=O)[C@H](CO)NC(=O)[C@H](CCCNC(=N)N)NC(=O)[C@H](CCCNC(=N)N)NC(=O)[C@H](CC(C)C)NC(=O)[C@H](CO)NC(=O)CCOCCOCCOCCOCCNC(=O)[C@H](CCCCNC(=O)CCSCC(=O)NCCO[C@@H]2O[C@H](CO)[C@@H](O[C@@H]3O[C@H](CO)[C@@H](O[C@@H]4O[C@H](CO[C@H]5O[C@H](CO)[C@@H](O)[C@H](O)[C@@H]5O[C@@H]5O[C@H](CO)[C@@H](O[C@@H]6O[C@H](CO[C@]7(C(=O)O)C[C@H](O)[C@@H](NC(C)=O)[C@H]([C@H](O)[C@H](O)CO)O7)[C@H](O)[C@H](O)[C@H]6O)[C@H](O)[C@H]5NC(C)=O)[C@@H](O)[C@H](O[C@H]5O[C@H](CO)[C@@H](O)[C@H](O)[C@@H]5O[C@@H]5O[C@H](CO)[C@@H](O[C@@H]6O[C@H](CO[C@]7(C(=O)O)C[C@H](O)[C@@H](NC(C)=O)[C@H]([C@H](O)[C@H](O)CO)O7)[C@H](O)[C@H](O)[C@H]6O)[C@H](O)[C@H]5NC(C)=O)[C@@H]4O)[C@H](O)[C@H]3NC(C)=O)[C@H](O)[C@H]2NC(C)=O)NC(=O)CCSCC(=O)NCCO[C@@H]2O[C@H](CO)[C@@H](O[C@@H]3O[C@H](CO)[C@@H](O[C@@H]4O[C@H](CO[C@H]5O[C@H](CO)[C@@H](O)[C@H](O)[C@@H]5O[C@@H]5O[C@H](CO)[C@@H](O[C@@H]6O[C@H](CO[C@]7(C(=O)O)C[C@H](O)[C@@H](NC(C)=O)[C@H]([C@H](O)[C@H](O)CO)O7)[C@H](O)[C@H](O)[C@H]6O)[C@H](O)[C@H]5NC(C)=O)[C@@H](O)[C@H](O[C@H]5O[C@H](CO)[C@@H](O)[C@H](O)[C@@H]5O[C@@H]5O[C@H](CO)[C@@H](O[C@@H]6O[C@H](CO[C@]7(C(=O)O)C[C@H](O)[C@@H](NC(C)=O)[C@H]([C@H](O)[C@H](O)CO)O7)[C@H](O)[C@H](O)[C@H]6O)[C@H](O)[C@H]5NC(C)=O)[C@@H]4O)[C@H](O)[C@H]3NC(C)=O)[C@H](O)[C@H]2NC(C)=O)CSSC[C@@H](C(=O)N[C@@H](CC(N)=O)C(=O)N[C@@H](CO)C(=O)N[C@@H](Cc2ccccc2)C(=O)N[C@@H](CCCNC(=N)N)C(=O)N[C@@H](Cc2ccc(O)cc2)C(=O)O)NC(=O)CNC(=O)[C@H](CC(C)C)NC(=O)CNC(=O)[C@H](CO)NC(=O)[C@H](CCC(N)=O)NC(=O)[C@H](C)NC(=O)CNC1=O [Compound 2-34, SG-thioacetamide-(SG-thioacetamide-)Lys-PEG-(3)-hANP(1-28)]	0.53
CC[C@H](C)[C@@H]1NC(=O)[C@H](CCCNC(=N)N)NC(=O)[C@H](CC(=O)O)NC(=O)[C@H](CCSC)NC(=O)[C@H](CCCNC(=N)N)NC(=O)CNC(=O)CNC(=O)[C@H](Cc2ccccc2)NC(=O)[C@@H](NC(=O)[C@H](CO)NC(=O)[C@H](CO)NC(=O)[C@H](CCCNC(=N)N)NC(=O)[C@H](CCCNC(=N)N)NC(=O)[C@H](CC(C)C)NC(=O)[C@H](CO)NC(=O)CNC(=O)CO[C@@H]2O[C@H](CO)[C@@H](O[C@@H]3O[C@H](CO)[C@@H](O[C@@H]4O[C@H](CO[C@H]5O[C@H](CO)[C@@H](O)[C@H](O)[C@@H]5O[C@@H]5O[C@H](CO)[C@@H](O[C@@H]6O[C@H](CO[C@]7(C(=O)O)C[C@H](O)[C@@H](NC(C)=O)[C@H]([C@H](O)[C@H](O)CO)O7)[C@H](O)[C@H](O)[C@H]6O)[C@H](O)[C@H]5NC(C)=O)[C@@H](O)[C@H](O[C@H]5O[C@H](CO)[C@@H](O)[C@H](O)[C@@H]5O[C@@H]5O[C@H](CO)[C@@H](O[C@@H]6O[C@H](CO[C@]7(C(=O)O)C[C@H](O)[C@@H](NC(C)=O)[C@H]([C@H](O)[C@H](O)CO)O7)[C@H](O)[C@H](O)[C@H]6O)[C@H](O)[C@H]5NC(C)=O)[C@@H]4O)[C@H](O)[C@H]3NC(C)=O)[C@H](O)[C@H]2O)CSSC[C@@H](C(=O)N[C@@H](CC(N)=O)C(=O)N[C@@H](CO)C(=O)N[C@@H](Cc2ccccc2)C(=O)N[C@@H](CCCNC(=N)N)C(=O)N[C@@H](Cc2ccc(O)cc2)C(=O)O)NC(=O)CNC(=O)[C@H](CC(C)C)NC(=O)CNC(=O)[C@H](CO)NC(=O)[C@H](CCC(N)=O)NC(=O)[C@H](C)NC(=O)CNC1=O [Compound 2-40, SG(Glc)-Gly-A-hANP(1-28)]	0.05
